According to PubChem BioAssay AID248 (DTP/NCI, 2004):
Where “and” joins values, the source holds several entries; their conditions need not be identical. Equal entries are not always repeated. Inconclusive results and toxic doses are left out.

System: L1210 leukemia ip in BDF1 mice, survival T/C
Experiment: NCI In Vivo Anticancer Drug Screen. Data for tumor model L1210 Leukemia (intraperitoneal) in B6D2F1 (BDF1) mice
Conditions: endpoint: mean survival time, higher = longer survival
Summary of the method: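 Each compound was tested against a transplantable tumor grown in mice. The endpoint was survival, with treated animals benchmarked against vehicle controls as a simple ratio.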

[1] = dose: 6.25 mg/kg/injection, schedule: Q04DX003 (ip), vehicle: Klucel (hydroxypropylcellulose) (HPC)
[2] = dose: 100.0 mg/kg/injection, schedule: Q01DX001 (ip), vehicle: saline
[3] = dose: 200.0 mg/kg/injection, schedule: Q01DX001 (ip), vehicle: saline

SMILES: CCN(CC)CCN(C)CC(=O)Nc1ccccc1C
- T/C (dose: 75.0 mg/kg/injection, schedule: Q01DX001 (ip), vehicle: saline): 100 % of control
- T/C (dose: 150.0 mg/kg/injection, schedule: Q01DX001 (ip), vehicle: saline): 103 % of control
- T/C (dose: 300.0 mg/kg/injection, schedule: Q01DX001 (ip), vehicle: saline): 101 % of control

SMILES: CCCCCCCCCCC[CH2][Hg][Cl]
- T/C [1]: 93 % of control

SMILES: CC1CN=C(c2ccc(NC(=O)C3CCC(C(=O)Nc4ccc(C5=NCC(C)N5)cc4)CC3)cc2)N1 (stereo not drawn)
- T/C (dose: 31.0 mg/kg/injection, schedule: Q01DX015 (ip), vehicle: methylcellulose (MC)): 159 % of control
- T/C (dose: 62.0 mg/kg/injection, schedule: Q01DX015 (ip), vehicle: methylcellulose (MC)): 113 % of control

SMILES: CN(C)Cc1ncccc1OC(=O)N(c1ccccc1)c1ccccc1
- T/C (dose: 12.5 mg/kg/injection, schedule: Q01DX009 (ip), vehicle: saline): 97 % of control
- T/C (dose: 25.0 mg/kg/injection, schedule: Q01DX009 (ip), vehicle: saline): 97 % of control
- T/C (dose: 50.0 mg/kg/injection, schedule: Q01DX009 (ip), vehicle: saline): 100 % of control

SMILES: CCCC(=O)OCc1cnc(SC)nc1N
- T/C [2]: 100 % of control
- T/C [3]: 97 % of control
- T/C (dose: 400.0 mg/kg/injection, schedule: Q01DX001 (ip), vehicle: saline): 93 % of control

SMILES: C/C(=C1/SC(=S)NC1=O)c1ccccc1O
- T/C [2]: 104 % of control
- T/C [3]: 104 % of control

SMILES: Clc1ccc(OCc2sc3ccc(Cl)cc3c2CN2CCCCC2)cc1
- T/C (dose: 25.0 mg/kg/injection, schedule: Q04DX003 (ip), vehicle: saline with Tween-80): 88 % of control
- T/C (dose: 50.0 mg/kg/injection, schedule: Q04DX003 (ip), vehicle: saline with Tween-80): 87 % of control
- T/C (dose: 100.0 mg/kg/injection, schedule: Q04DX003 (ip), vehicle: saline with Tween-80): 90 % of control and 92 % of control

SMILES: COC1OC(CO)C(NC(N)=O)C1O (stereo not drawn)
- T/C (dose: 100.0 mg/kg/injection, schedule: Q04DX002 (ip), vehicle: Klucel (hydroxypropylcellulose) (HPC)): 105 % of control
- T/C (dose: 200.0 mg/kg/injection, schedule: Q04DX002 (ip), vehicle: Klucel (hydroxypropylcellulose) (HPC)): 105 % of control
- T/C (dose: 400.0 mg/kg/injection, schedule: Q04DX002 (ip), vehicle: Klucel (hydroxypropylcellulose) (HPC)): 111 % of control

SMILES: Cc1ccc(S(=O)(=O)N2C(=O)CCC2C(=O)O)cc1 (stereo not drawn)
- T/C (dose: 100.0 mg/kg/injection, schedule: Q01DX001 (ip), vehicle: saline with Tween-80): 100 % of control
- T/C (dose: 100.0 mg/kg/injection, schedule: Q01DX009 (ip), vehicle: saline with Tween-80): 98 % of control
- T/C (dose: 200.0 mg/kg/injection, schedule: Q01DX001 (ip), vehicle: saline with Tween-80): 96 % of control
- T/C (dose: 200.0 mg/kg/injection, schedule: Q01DX009 (ip), vehicle: saline with Tween-80): 96 % of control
- T/C (dose: 400.0 mg/kg/injection, schedule: Q01DX001 (ip), vehicle: saline with Tween-80): 97 % of control
- T/C (dose: 400.0 mg/kg/injection, schedule: Q01DX009 (ip), vehicle: saline with Tween-80): 102 % of control

SMILES: N#CS/C=C/C(N)=O
- T/C (dose: 1.0 mg/kg/injection, schedule: Q01DX001 (ip), vehicle: saline): 101 % of control
- T/C (dose: 2.0 mg/kg/injection, schedule: Q01DX001 (ip), vehicle: saline): 99 % of control
- T/C (dose: 2.0 mg/kg/injection, schedule: Q01DX009 (ip), vehicle: saline): 103 % of control
- T/C (dose: 4.0 mg/kg/injection, schedule: Q01DX001 (ip), vehicle: saline): 95 % of control
- T/C (dose: 4.0 mg/kg/injection, schedule: Q01DX009 (ip), vehicle: saline): 103 % of control
- T/C (dose: 8.0 mg/kg/injection, schedule: Q01DX001 (ip), vehicle: saline): 94 % of control
- T/C (dose: 8.0 mg/kg/injection, schedule: Q01DX009 (ip), vehicle: saline): 105 % of control

SMILES: CCC1([N+](=O)[O-])COCOC1
- T/C [1]: 96 % of control
- T/C (dose: 12.5 mg/kg/injection, schedule: Q04DX003 (ip), vehicle: Klucel (hydroxypropylcellulose) (HPC)): 111 % of control
- T/C (dose: 25.0 mg/kg/injection, schedule: Q04DX003 (ip), vehicle: Klucel (hydroxypropylcellulose) (HPC)): 96 % of control and 111 % of control

SMILES: CCSC1OC(COS(C)(=O)=O)C(OS(C)(=O)=O)C1NC(C)=O (stereo not drawn)
- T/C (dose: 50.0 mg/kg/injection, schedule: Q01DX001 (ip), vehicle: carboxymethylcellulose (CMC)): 97 % of control
- T/C (dose: 100.0 mg/kg/injection, schedule: Q01DX001 (ip), vehicle: carboxymethylcellulose (CMC)): 97 % of control
- T/C (dose: 200.0 mg/kg/injection, schedule: Q01DX001 (ip), vehicle: carboxymethylcellulose (CMC)): 92 % of control
- T/C (dose: 400.0 mg/kg/injection, schedule: Q01DX001 (ip), vehicle: carboxymethylcellulose (CMC)): 97 % of control

SMILES: BrCC(Br)c1ccccc1 (stereo not drawn)
- T/C (dose: 100.0 mg/kg/injection, schedule: Q04DX003 (ip), vehicle: Klucel (hydroxypropylcellulose) (HPC)): 91 % of control
- T/C (dose: 200.0 mg/kg/injection, schedule: Q04DX003 (ip), vehicle: Klucel (hydroxypropylcellulose) (HPC)): 91 % of control
- T/C (dose: 400.0 mg/kg/injection, schedule: Q04DX003 (ip), vehicle: Klucel (hydroxypropylcellulose) (HPC)): 98 % of control
